Changes are numbered by the printed parent chain. Read-outs that look alike come from different tables or passages of the source.
Assays:
RET (658-1114) = molecular target: T1, RET (658-1114) (Homo sapiens, UniProt P07949); experiment: HiBiT-Degradation, RET wild-type degradation assay (Nano-Glo HiBiT Lytic), 293T.144 cells; format: cell-based; conditions: for DC50 / Emax: 6.0 hours; for DC50: read-out: 293T.144 RET (658-1114) 6.0 hours (DC50); for Emax: read-out: 293T.144 RET (658-1114) 6.0 hours (Emax)
T1 construct: 658-1114; expressed in transfected cells; host or cells: 293T.144 (293T cells, generated in-house)
T1 sequence (P07949 658-1114): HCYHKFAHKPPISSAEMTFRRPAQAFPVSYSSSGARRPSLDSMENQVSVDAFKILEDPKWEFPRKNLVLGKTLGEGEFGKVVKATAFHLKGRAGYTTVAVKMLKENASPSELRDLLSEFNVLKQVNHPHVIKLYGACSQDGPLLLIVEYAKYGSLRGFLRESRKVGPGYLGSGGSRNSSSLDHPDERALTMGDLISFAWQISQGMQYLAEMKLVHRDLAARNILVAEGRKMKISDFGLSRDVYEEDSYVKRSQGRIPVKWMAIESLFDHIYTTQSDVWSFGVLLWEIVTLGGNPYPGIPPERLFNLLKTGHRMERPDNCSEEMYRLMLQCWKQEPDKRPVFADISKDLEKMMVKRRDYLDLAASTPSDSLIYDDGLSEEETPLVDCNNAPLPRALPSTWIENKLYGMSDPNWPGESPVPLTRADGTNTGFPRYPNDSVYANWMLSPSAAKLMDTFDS
How it was run: (§1)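 Luminescence readout of HiBiT-tagged RET kinase domain remaining after 6 h compound exposure. Cells: 293T.144 (wild type) or 293T.165 (G810R), 11 half-log doses up to 10 μM, duplicates. DC50 and Emax as % remaining protein taken from curve fits.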

RET(KD: 658-1114 G810R) = molecular target: T2, RET(KD: 658-1114 G810R) (Homo sapiens, UniProt P07949, G810R); experiment: HiBiT-Degradation, RET G810R degradation assay (Nano-Glo HiBiT Lytic), 293T.165 cells; format: cell-based; conditions: for Emax / DC50: 6.0 hours; for Emax: read-out: 293T.165 RET(KD: 658-1114 G810R) 6.0 hours (Emax); for DC50: read-out: 293T.165 RET(KD: 658-1114 G810R) 6.0 hours (DC50)
T2 construct: 658-1114; expressed in transfected cells; host or cells: 293T.165 (293T cells, generated in-house)
T2 sequence (P07949 658-1114 G810R): T1 sequence (P07949 658-1114) with G153R
How it was run: as §1

[1] = half-maximal degradation concentration

| 293T.144 RET (658-1114) 6.0 hours (IP) [nM] (RET (658-1114)) | DC50 (RET (658-1114); [1]) | 293T.144 RET (658-1114) 6.0 hours (Emax) (RET (658-1114); % remaining protein) | 293T.165 RET(KD: 658-1114 G810R) 6.0 hours (IP) [nM] (RET(KD: 658-1114 G810R)) | 293T.165 RET(KD: 658-1114 G810R) 6.0 hours (Emax) (RET(KD: 658-1114 G810R); % remaining protein) | 293T.165 RET(KD: 658-1114 G810R) 6.0 hours (DC50) [nM] (RET(KD: 658-1114 G810R); [1]) | Emax (RET(KD: 658-1114 G810R); % remaining protein) | DC50 (RET(KD: 658-1114 G810R); [1]) | 293T.144 RET (658-1114) 6.0 hours (IP) [nM] (RET (658-1114); HiBiT-Degradation) | DC50 (RET (658-1114); HiBiT-Degradation) | Emax (RET (658-1114); HiBiT-Degradation) | 293T.165 RET(KD: 658-1114 G810R) 6.0 hours (Emax) (RET(KD: 658-1114 G810R); HiBiT-Degradation) | 293T.165 RET(KD: 658-1114 G810R) 6.0 hours (IP) [nM] (RET(KD: 658-1114 G810R); HiBiT-Degradation) | DC50 (RET(KD: 658-1114 G810R); HiBiT-Degradation) | Structure (SMILES) | Emax (RET (658-1114); % remaining protein) |
| --- | --- | --- | --- | --- | --- | --- | --- | --- | --- | --- | --- | --- | --- | --- | --- |
| ++++ (<50 nM = ++++) | < 0.05 µM | ++++ (<30% = ++++) | ++++ (<50 nM = ++++) | ++++ (<30% = ++++) | ++++ (<50 nM = ++++) | – | – | – | – | – | – | – | – | CCC1(C(=O)NC(C)C)CCN(c2ccc(-c3nc(-c4cnn(C5CCC(CCN6CCC(c7ccc(NC8CCC(=O)NC8=O)cc7F)CC6)CC5)c4)cn4ncc(C#N)c34)cn2)CC1 (stereo not drawn) [Compound 181, 1-(5-(3-Cyano-6-(1-((1r, 4r)-4-(2-(4-(4-((2,6-dioxopiperidin-3-yl)amino)-2-fluorophenyl)piperidin-1-yl)ethyl)cyclohexyl)-1H-pyrazol-4-yl)pyrazolo[1,5-a]pyrazin-4-yl)pyridin-2-yl)-4-ethyl-N-isopropylpiperidine-4-carboxamide] | – |
| – | – | – | – | – | – | < 30% | < 0.1 µM | ++++ (< 50 nM = ++++) | < 0.05 µM | < 30% | ++++ (< 30% = ++++) | ++++ (< 50 nM = ++++) | < 0.1 µM | CC(C)NC(=O)C1(C)CCN(c2ccc(-c3cc(-c4ccc(N5CCN(C(=O)CN6CCC(c7ccc(NC8CCC(=O)NC8=O)cc7F)CC6)CC5)cc4)cn4ncc(C#N)c34)cn2)CC1 (stereo not drawn) [Compound 45, 1-[5-[3-cyano-6-[4-[4-[2-[4-[4-[(2,6-dioxo-3-piperidyl)amino]-2-fluoro-phenyl]-1-piperidyl]acetyl]piperazin-1-yl]phenyl]pyrazolo[1,5-a]pyridin-4-yl]-2-pyridyl]-N-isopropyl-4-methyl-piperidine-4-carboxamide] | – |
| ++++ (<50 nM = ++++) | < 0.05 µM | – | ++++ (<50 nM = ++++) | – | – | < 50% | < 0.05 µM | – | – | – | – | – | – | CCC1(c2ncccn2)CCN(c2ccc(-c3nc(-c4cnn(C5CCN(C(=O)CC6(O)CCN(c7ccc(NC8CCC(=O)NC8=O)cc7F)CC6)CC5)c4)cn4ncc(C#N)c34)cn2)CC1 (stereo not drawn) [Compound 105, 6-[1-[1-[2-[1-[4-[(2,6-dioxo-3-piperidyl)amino]-2-fluoro-phenyl]-4-hydroxy-4-piperidyl]acetyl]-4-piperidyl]pyrazol-4-yl]-4-[6-(4-ethyl-4-pyrimidin-2-yl-1-piperidyl)-3-pyridyl]pyrazolo[1,5-a]pyrazine-3-carbonitrile] | < 30% |
| ++++ (<50 nM = ++++) | < 0.05 µM | – | ++++ (<50 nM = ++++) | – | – | < 30% | < 0.05 µM | – | – | – | – | – | – | CCC1(C(=O)NC2CCC2)CCN(c2ccc(-c3nc(-c4cnn([C@H]5C[C@](F)(CN6CCN(c7ccc(N[C@@H]8CCC(=O)NC8=O)cc7F)CC6)C5)c4)cn4ncc(C#N)c34)cn2)CC1 [Compound 187, 1-[5-[3-cyano-6-[1-[3-[[4-[4-[[(3R)-2,6-dioxo-3-piperidyl]amino]-2-fluoro-phenyl]piperazin-1-yl]methyl]-3-fluoro-cyclobutyl]pyrazol-4-yl]pyrazolo[1,5-a]pyrazin-4-yl]-2-pyridyl]-N-cyclobutyl-4-ethyl-piperidine-4-carboxamide] | < 30% |
| ++++ (<50 nM = ++++) | < 0.05 µM | – | ++++ (<50 nM = ++++) | – | – | < 30% | < 0.1 µM | – | – | – | – | – | – | N#Cc1cnn2cc(-c3cnn(C4CCN(C(=O)CC5(O)CCN(c6ccc(NC7CCC(=O)NC7=O)cc6F)CC5)CC4)c3)nc(-c3ccc(N4CCN(C(=O)C5CCCCC5)CC4)nc3)c12 (stereo not drawn) [Compound 107, 4-[6-[4-(cyclohexanecarbonyl)piperazin-1-yl]-3-pyridyl]-6-[1-[1-[2-[1-[4-[(2,6-dioxo-3-piperidyl)amino]-2-fluoro-phenyl]-4-hydroxy-4-piperidyl]acetyl]-4-piperidyl]pyrazol-4-yl]pyrazolo[1,5-a]pyrazine-3-carbonitrile] | < 30% |
| – | – | – | – | – | – | < 30% | < 0.05 µM | ++++ (< 50 nM = ++++) | < 0.05 µM | < 30% | ++++ (< 30% = ++++) | ++++ (< 50 nM = ++++) | < 0.05 µM | CCC1(C(=O)NC(C)C)CCN(c2ccc(-c3cc(-c4cnn(C5CCN(C(=O)CN6CCN(c7ccc(NC8CCC(=O)NC8=O)cc7F)CC6)CC5)c4)cn4ncc(C#N)c34)cn2)CC1 (stereo not drawn) [Compound 66, 1-[5-[3-cyano-6-[1-[1-[2-[4-[4-[(2,6-dioxo-3-piperidyl)amino]-2-fluoro-phenyl]piperazin-1-yl]acetyl]-4-piperidyl]pyrazol-4-yl]pyrazolo[1,5-a]pyridin-4-yl]-2-pyridyl]-4-ethyl-N-isopropyl-piperidine-4-carboxamide] | – |

| Structure (SMILES) | 293T.144 RET (658-1114) 6.0 hours (IP) [nM] (RET (658-1114)) | DC50 (RET (658-1114); [1]) | 293T.144 RET (658-1114) 6.0 hours (Emax) (RET (658-1114); % remaining protein) | 293T.165 RET(KD: 658-1114 G810R) 6.0 hours (IP) [nM] (RET(KD: 658-1114 G810R)) | 293T.165 RET(KD: 658-1114 G810R) 6.0 hours (Emax) (RET(KD: 658-1114 G810R); % remaining protein) | 293T.165 RET(KD: 658-1114 G810R) 6.0 hours (DC50) [nM] (RET(KD: 658-1114 G810R); [1]) | Emax (RET(KD: 658-1114 G810R); % remaining protein) | DC50 (RET(KD: 658-1114 G810R); [1]) | 293T.144 RET (658-1114) 6.0 hours (IP) [nM] (RET (658-1114); HiBiT-Degradation) | DC50 (RET (658-1114); HiBiT-Degradation) | Emax (RET (658-1114); HiBiT-Degradation) | 293T.165 RET(KD: 658-1114 G810R) 6.0 hours (Emax) (RET(KD: 658-1114 G810R); HiBiT-Degradation) | 293T.165 RET(KD: 658-1114 G810R) 6.0 hours (IP) [nM] (RET(KD: 658-1114 G810R); HiBiT-Degradation) | DC50 (RET(KD: 658-1114 G810R); HiBiT-Degradation) | Emax (RET (658-1114); % remaining protein) |
| --- | --- | --- | --- | --- | --- | --- | --- | --- | --- | --- | --- | --- | --- | --- | --- |
| COc1ccc(CN2C3CC2CN(c2ccc(-c4nc(-c5cnn([C@H]6CC[C@@H](N7CCC(c8cc9c(cc8F)c(N8CCC(=O)NC8=O)nn9C)C(F)(F)C7)CC6)c5)cn5ncc(C#N)c45)cn2)C3)cn1 (relative stereo) [Compound 200, 6-(1-((1s, 4s)-4-(4-(3-(2,4-Dioxotetrahydropyrimidin-1(2H)-yl)-5-fluoro-1-methyl-1H-indazol-6-yl)-3,3-difluoropiperidin-1-yl)cyclohexyl)-1H-pyrazol-4-yl)-4-(6-(6-((6-methoxypyridin-3-yl)methyl)-3,6-diazabicyclo[3.1.1]heptan-3-yl)pyridin-3-yl)pyrazolo[1,5-a]pyrazine-3-carbonitrile] | ++++ (<50 nM = ++++) | < 0.05 µM | – | ++++ (<50 nM = ++++) | – | – | < 50% | < 0.05 µM | – | – | – | – | – | – | < 30% |
| N#Cc1cnn2cc(-c3cnn(C4CCC(N5CCN(c6ccc(NC7CCC(=O)NC7=O)cc6F)CC5)CC4)c3)nc(-c3ccc(N4C[C@H]5COC[C@@H](C4)N5CC4CCC(F)(F)CC4)nc3)c12 (single isomer, unassigned) [Compound 150] | ++++ (<50 nM = ++++) | < 0.05 µM | – | ++++ (<50 nM = ++++) | – | – | < 30% | – | – | – | – | – | – | – | < 30% |
| COc1cc(N2CCN([C@H]3CC[C@H](n4cc(-c5cn6ncc(C#N)c6c(-c6ccc(N7C[C@H]8COC[C@@H](C7)N8CC7CCOCC7)nc6)n5)cn4)CC3)CC2)c(F)cc1NC1CCC(=O)NC1=O (single isomer, unassigned) [Compound 166] | ++++ (<50 nM = ++++) | < 0.05 µM | – | ++++ (<50 nM = ++++) | – | – | < 30% | < 0.1 µM | – | – | – | – | – | – | < 30% |
